Laboratory results: US10105382B2, “Therapy regimen and methods to sensitize cancer cells treated with epigenetic therapy to PARP inhibitors in ovarian cancer” (THE JOHNS HOPKINS UNIVERSITY, priority 2014, dated 2018)

What was measured:
A2780 = test: Clonogenicity of ovarian cancer cells A2780; assay type: cell-based; conditions: 5AZA alone
Experimental: (§1) There were 7 days of recovery between the DNMTi and PARPi treatment;
(§2) Multiple cancer cell lines derived from leukemia, breast, ovarian, and lung were treated with low dose DAC/5-AZA (10 nM and 5 nM) for 3 days, followed by removal of the drug for 4 days to 7 days, and subsequent plating of cells in methylcellulose to follow self-renewal capability in the presence or absence of the PARP inhibitor ABT888 (500 nM).

PARP = conditions: treatment alone
[1] = tested on: cancer cell lines derived from leukemia, breast, ovarian, and lung; test: Methylcellulose colony assay in multiple cancer cell lines; assay type: cell-based
Experimental: as §2

MDA MB231 = test: Clonogenicity of breast cancer cells MDA MB231; assay type: cell-based; conditions: 5AZA alone
Experimental: as §1, §2

OVCAR3 = test: Clonogenicity of ovarian cancer cells OVCAR3; assay type: cell-based; conditions: 5AZA alone
Experimental: as §1, §2

HCC1937 = test: Clonogenicity of breast cancer cells HCC1937; assay type: cell-based; conditions: 5AZA alone
Experimental: as §1, §2

MCF7 = test: Clonogenicity of breast cancer cells MCF7; assay type: cell-based; conditions: 5AZA alone
Experimental: as §1, §2

MOLM14 = test: cells; conditions: Homo sapiens, MOLM-14, 72 h
Experimental: (§6) Four hours prior to evaluation, 20 μL of MTS labelling reagent ([3-(4, 5-dimethylthiazol-2-yl)-5-(3-carboxymethoxyphenyl)-2-(4-sulfophenyl)-2H-tetrazolium, MTS supplemented with phenazine methosulfate, PMS, Promega, Madison, Wis.) was added to each well. The results were quantified using a VersaMax Elisa Microplate Reader at a wavelength of 490 nm and SoftMax®Pro software (Molecular Devices, Sunnyvale, Calif.). Results (fold changes compared to CRTL) are representative of the mean±SEM of three independent experiments in triplicate.
(§7) Four hours prior to evaluation, 20 μL of MTS labelling reagent ([3-(4,5-dimethylthiazol-2-yl)-5-(3-carboxymethoxyphenyl)-2-(4-sulfophenyl)-2H-tetrazolium, MTS supplemented with phenazine methosulfate, PMS, Promega, Madison, Wis.) was added to each well. The results were quantified using a VersaMax Elisa Microplate Reader at a wavelength of 490 nm and SoftMax®Pro software (Molecular Devices, Sunnyvale, Calif.). Results (Fold changes compared to CRTL) are representative of the mean±SEM of three independent experiments in triplicate.

[2] = tested on: MV411 (homozygote for FLT3-ITD); test: Colony forming (methylcellulose clonogenic) assay in MV411; assay type: cell-based, Human
Experimental: (§3) Decitabine (DAC, 21.9 mM in DMSO, Sigma-Aldrich) was further diluted in water just before treatment of the cells with 5 nM, 10 nM or 20 nM of DAC. […] DAC was added every 24 hours for 72 hours with daily medium change, then the drug was washed out and cells were allowed to recover for 4 days (unless indicated otherwise) before further use. At day 7, cells were counted with trypan blue, treated with PARPi's, set in culture in 100 mm plates at a density of 0.2×10^6 cells/mL or in methylcellulose for colony forming assay as described later. At days indicated on the figures, 5- to 10×10^6 viable cells (trypan blue exclusion) were recovered, fast frozen and stored at −80° C. for further use for protein extraction.
(§4) Colony forming assay: At Day 7 of the experiment, equal numbers of viable cells (KASUMI-1 cells, 10000 cells/dish; MV411, 5000 cells/dish; MOLM14, 1000 cells/dish; Patients #16, 2000 cells/dish, #9, #13 and #15, 5000 cells/dish, #29, 10000 cells/dish, #30, 20000 cells/dish and #34, 40000 cells/dish) were treated as described earlier and plated in triplicate in 33 mm dish on MethoCult H4435 Enriched (StemCell Technologies, Vancouver, British Columbia, Canada) for MNC, or Methylcellulose Stock Solution (R&D Systems, Minneapolis, Minn.) supplemented with culture media for cell lines according to the instructions of the manufacturer. Ten to nineteen days later, colonies were stained with 2-(4-iodophenyl)-3-(4-nitrophenyl)-5-phenlytetrazolium chloride (1 mg/mL) overnight at 37° C. and colonies containing more than 40 cells were quantified using a colony counter and Protocol3 software (Synbiosis, Frederick, Md.).
(§5) In order to study if the DAC dependent reprogramming (Tsai et al., 2012) could sensitize AML cells to PARPi's, KASUMI-1, MOLM14 and MV411 cells were first treated with increased doses of DAC (5 nM-20 nM) for three days with daily replacement of drugs and media as described previously (Tsai et al., 2012). […]

γH2AX foci = γH2AX foci immunofluorescence in MV411; assay type: cell-based, Human
Experimental: Immunofluorescence: AML cells (0.2×10^6 cells) were cytospun onto glass slides for 5 min at 200 rpm in PBS 1× on a Shandon Cytospin 4. Cells were then fixed for 30 min in 4% paraformaldehyde, washed 3 times in DPBS (+CaCl2 and MgCl2, DPBS++), permeabilized for 10 min in permeabilization solution (50 mM NaCl, 3 mM MgCl2, 10 mM HEPES, 200 mM Sucrose and 0.5% Triton X-100 in PBS 1×), washed 3 times in DPBS (+CaCl2, +MgCl2) supplemented with BSA 1% (DPBS-BSA) and then blocked overnight in DPBS++ supplemented with 10% serum. After incubation with mouse monoclonal anti-γH2A.x (1:100, Upstate), rabbit polyclonal anti-RAD51 (1:100, Santa Cruz Biotechnologies, Dallas, Tex.), rabbit Poly-ADP-ribose (PAR, 1:200, Axxora, Farmingdale, N.Y.), or isotypes controls for an hour at 37° C. in DPBS-BSA, cells were washed and then incubated with Dylight 594-anti-mouse and Dylight 488-anti rabbit (1:200, KPL, Gaithersburg, Md.) for an hour at 37° C. prior to counterstaining with 4′,6 diamidino-2-phenylindole, dihydrochloride (DAPI, 0.3 μg/mL, Promega, Madison, Wis.) in mounting media (Vectashield, Vector Laboratories, Burlingame, Calif.). Slides were examined using a Nikon fluorescent microscope Eclipse 80i (100×/1.4 oil, Melville, N.Y.). Images of at least 50 cells/slide were captured using a CCD (charge-coupled device) camera and the imaging software NIS Elements (BR 3.00, Nikon).

MV411 = test: cells; conditions: Homo sapiens, MV4-11, 72 h
Experimental: as §6, §7

[3] = tested on: mononuclear cells (MNC) from AML patients; test: Colony forming assay in primary cells from AML patients; assay type: cell-based, Human; conditions: ABT888 500 nM alone; 3 of 6 patients (#15, #29, #16)
[4] = tested on: KASUMI-1 (AML1-ETO positive); test: Colony forming (methylcellulose clonogenic) assay in KASUMI-1; assay type: cell-based, Human; conditions: ABT888 500 nM, single agent
Experimental: as §3, with “extraction. […]” for “extraction.”
In order to study if the DAC dependent reprogramming (Tsai et al., 2012) could sensitize AML cells to PARPi's, KASUMI-1, MOLM14 and MV411 cells were first treated with increased doses of DAC (5 nM-20 nM) for three days with daily replacement of drugs and media as described previously (Tsai et al., 2012). […] Ten days later, clonogenic efficiency was measured by counting colonies with more than 40 cells and results were expressed as fold changes compared to controls (CRTL) (FIG. 2).

[5] = tested on: MOLM14 (heterozygote for FLT3-ITD); test: Colony forming (methylcellulose clonogenic) assay in MOLM14; assay type: cell-based, Human
Experimental: as §3, §4, §5

PARP1 = target: T1, PARP1 (Homo sapiens, UniProt P09874); test: PARP1 trapping in chromatin, Western blot of chromatin extracts of X-irradiated AML cells; assay type: cell-based; conditions: MV411, ABT888 5 μM alone, 4Gy X-ray, FIG. 15E
T1 construct: chromatin extracts from cells X-irradiated (4Gy) to induce DSBs were examined; endogenous in cells; host or cells: MV411 and MOLM14 AML cells
T1 sequence (P09874 whole entry): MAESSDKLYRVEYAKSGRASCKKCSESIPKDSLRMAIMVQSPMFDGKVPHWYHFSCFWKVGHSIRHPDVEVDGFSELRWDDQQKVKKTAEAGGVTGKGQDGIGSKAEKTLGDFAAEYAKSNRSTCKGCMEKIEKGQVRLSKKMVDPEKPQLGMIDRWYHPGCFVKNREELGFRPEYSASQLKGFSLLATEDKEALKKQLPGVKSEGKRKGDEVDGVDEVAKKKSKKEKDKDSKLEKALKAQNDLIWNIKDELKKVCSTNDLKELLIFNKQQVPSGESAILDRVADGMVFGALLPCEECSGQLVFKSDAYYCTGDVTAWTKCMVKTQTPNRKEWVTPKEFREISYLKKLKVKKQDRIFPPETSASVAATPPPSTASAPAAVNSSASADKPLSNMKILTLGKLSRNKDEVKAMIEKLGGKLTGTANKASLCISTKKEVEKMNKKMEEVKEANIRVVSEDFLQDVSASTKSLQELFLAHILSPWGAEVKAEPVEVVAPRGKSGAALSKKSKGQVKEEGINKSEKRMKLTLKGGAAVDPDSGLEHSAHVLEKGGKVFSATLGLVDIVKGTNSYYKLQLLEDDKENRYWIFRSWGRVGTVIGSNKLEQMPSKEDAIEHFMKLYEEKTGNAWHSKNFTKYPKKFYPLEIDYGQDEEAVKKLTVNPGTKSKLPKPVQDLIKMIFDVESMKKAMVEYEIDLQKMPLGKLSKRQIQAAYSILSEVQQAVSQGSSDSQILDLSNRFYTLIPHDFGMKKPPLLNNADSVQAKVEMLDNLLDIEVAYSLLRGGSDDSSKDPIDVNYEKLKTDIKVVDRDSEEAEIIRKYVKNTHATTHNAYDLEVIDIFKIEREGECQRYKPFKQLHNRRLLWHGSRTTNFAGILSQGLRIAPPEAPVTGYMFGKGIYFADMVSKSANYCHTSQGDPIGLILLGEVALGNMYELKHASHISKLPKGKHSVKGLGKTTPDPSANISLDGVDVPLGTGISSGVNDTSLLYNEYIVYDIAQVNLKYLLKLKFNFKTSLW
Text: Irradiation: For irradiation (IR) studies, cells were exposed to 4Gy X-Ray radiation using a Pantak HF320 X-Ray machine (250 kV peak, 13 mA; half-value layer, 1.65 mm copper) at a dose rate of 2.4 Gy/min. After IR, cells were allowed to recover from DNA damage for 4 hrs before extraction of protein.
Subcellular fractionation: To isolate the chromatin bound fraction (CH) and soluble nuclear fraction (NUC), a Subcellular Protein Fractionation kit (Thermo Fisher Scientific, Waltham, Mass.) was used by following the instructions of the manufacturer.
Immunoblotting: Immunoblotting was performed following standard procedures using 5 μg of NUC and CH fractions. Proteins were loaded onto a 4%-20% SDS-PAGE gel (Bio-Rad laboratories, Hercules, Calif.), transferred on PVDF membrane (GE Healthcare Life Sciences, Pittsburgh, Pa.) and blots were washed in Tris Buffered Saline-0.1% Tween 20 (TBST) three times, blocked in TBST-5% bovine serum albumin (TBST-BSA) for an hour at least and first antibodies in TBST-BSA were applied overnight at 4° C. on shaker. […]

normal bone marrow (NBM) = test: Colony survival of normal bone marrow; assay type: cell-based; conditions: drug concentrations used; BMN 1 nM in FIG. 18
Experimental: Colony forming assay: At Day 7 of experiment, equal numbers of viable cells (KASUMI-1 cells 10000 cells/dish; MV411 3000 cells/dish; MOLM14 1000 cells/dish; Patients #16, 2000 cells/dish, #9, #13 and #15, 5000 cells/dish, #29, 10000 cells/dish, #30, 20000 cells/dish and #34, 40000 cells/dish) were treated as described earlier and plated in triplicate in 33 mm dish on MethoCult H4435 Enriched (StemCell Technologies, Vancouver, British Columbia, Canada) for MNC, or Methylcellulose Stock Solution (R&D Systems, Minneapolis, Minn.) supplemented with culture media for cell lines according to the instructions of the manufacturer. Ten to nineteen days later, colonies were stained with 2-(4-iodophenyl)-3-(4-nitrophenyl)-5-phenlytetrazolium chloride (1 mg/mL) overnight at 37° C. and colonies containing more than 40 cells were quantified using colony counter and Protocol3 software (Synbiosis, Frederick, Md.).

[6] = BMN673 between 10 nM and 100 nM

Nc1ncn([C@@H]2O[C@H](CO)[C@@H](O)[C@H]2O)c(=O)n1 [5AZA, 5-azacitidine]
clonogenicity (A2780): decreased
PARP activity (PARP): decreases PARP activity
colony numbers ([1]; DAC/5-AZA (10 nM and 5 nM) for 3 days alone): significant decrease in colony numbers
clonogenicity (MDA MB231): decreased
clonogenicity (OVCAR3): decreased
clonogenicity (HCC1937): decreased
clonogenicity (MCF7): decreased

C[C@]1(c2nc3c(C(N)=O)cccc3[nH]2)CCCN1 [ABT888, Veliparib]
IC50 (MOLM14): > 25 µM
colony number vs CRTL ([2]; ABT888 500 nM, single agent): significant reduction of colony numbers
PARP activity (PARP): decreases PARP activity
γH2AX foci (γH2AX foci; MV411, ABT888 5 μM alone): an increase in foci
colony numbers ([1]; ABT888 500 nM alone): has an effect in some cases
IC50 (MV411): > 25 µM
responders: patients with decreased colony number [3]: 50%
colony number vs CRTL [4]: not significantly affected
colony number vs CRTL ([5]; ABT888 500 nM, single agent): significant reduction of colony numbers
PARP trapping into chromatin (PARP1): traps PARP into chromatin

Cn1ncnc1[C@H]1c2n[nH]c(=O)c3cc(F)cc(c23)N[C@@H]1c1ccc(F)cc1 [BMN673]
IC50 (MOLM14): 4.46 µM
sensitivity in clonogenic assay ([2]; BMN673 1 nM): barely sensitive
colony formation [2, 6]: profoundly inhibited colony formation
γH2AX foci (γH2AX foci; MV411, BMN673 10 nM alone): an increase in foci
IC50 (MV411): 6.45 µM
colony survival of normal bone marrow (normal bone marrow (NBM)): not affected
sensitivity in clonogenic assay ([5]; BMN673 1 nM): cytotoxity occurring
colony formation [5, 6]: profoundly inhibited colony formation
